Key:
Type in all cases: biochemical
[1] = target: T1, B-Raf V600E (Homo sapiens, UniProt P15056, V600E); test: AlphaScreen kinase assay, B-Raf V600E; conditions: read-out: IC50, activity toward kinase B-Raf V600E
T1 construct: P4254. pFastBacBD-CDC37 BRAF D437-K722-X, V600E; His6 with pFastBac HT leader (TEV site) (N); made in house; host or cells: Sf9 (baculovirus; chaperone CDC37 co-expressed)

[2] = target: T2, Yes (Homo sapiens, UniProt P07947); test: Z'-Lyte FRET kinase assay (Invitrogen), Yes; conditions: read-out: IC50, activity toward kinase Yes
T2 construct: purchased Invitrogen (Carlsbad, Calif.), screening service
Summary of the method: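 Each kinase phosphorylated a FRET peptide (2 μM) at 10 μM ATP in 50 mM HEPES pH 7.5, 50 mM MgCl2, 5 mM EGTA, 0.05% BRIJ-35 with 1% DMSO, 1 h at room temperature. After a 1 h protease development step, coumarin/fluorescein emission ratio was read across serial compound dilutions.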

[3] = target: T3, Kdr (Homo sapiens, UniProt P35968); test: Z'-Lyte FRET kinase assay (Invitrogen), Kdr; conditions: read-out: IC50, activity toward kinase Kdr
T3 construct: purchased Invitrogen (assay run by Invitrogen)

[4] = target: T4, FGFR1 (Homo sapiens, UniProt P11362, C488A/C584S); test: AlphaScreen kinase assay, FGFR1; conditions: read-out: IC50, activity toward kinase FGFR
T4 construct: P1351.pET N6 BI-PTP FGFR A458-E765-X C488A, C584S; made in house; host or cells: E. coli (PTP1B co-expressed)

[5] = target: T5, Btk (Homo sapiens, UniProt Q06187); test: Z'-Lyte FRET kinase assay (Invitrogen), Btk; conditions: read-out: IC50, activity toward kinase Btk
T5 construct: purchased Invitrogen (assay run by Invitrogen)

[6] = target: T6, Flt4 (Homo sapiens, UniProt P35916); test: AlphaScreen kinase assay, Flt4; conditions: read-out: IC50, activity toward kinase Flt4
T6 construct: purchased ProQinase GmbH (Freiburg, Germany)
Description: AlphaScreen assay was used to screen additional kinases. The assay is similarly dependent on the phosphorylation of a peptide substrate. In this assay, an antibody that recognizes phosphorylated substrate is bound to an acceptor bead. The peptide substrate is attached to biotin, which binds to a donor head that contains streptavidin. Thus phosphorylated substrate is bound by antibody and streptavidin, bringing the donor and acceptor heads into close proximity when kinase is not inhibited. The donor produces singlet oxygen which results in emission from the acceptor when they are in close proximity. Conversely, when kinase is inhibited, the donor and acceptor beads are not associated and the emission from the acceptor is reduced.
AlphaScreen assays were done using compounds dissolved in DMSO to a concentration of 20 mM. The compounds were diluted accordingly to the desired final concentrations in each sample well, using 1:3 serial dilution for a total of 8 concentration points.

[7] = target: T7, Ret (Homo sapiens, UniProt P07949); test: AlphaScreen kinase assay, Ret; conditions: read-out: IC50, activity toward kinase Ret
T7 construct: P1378.pET-SF BI-PTP RET H661-R1012 HIS; made in house
T7 sequence (P07949 with tags, fused parts or gaps): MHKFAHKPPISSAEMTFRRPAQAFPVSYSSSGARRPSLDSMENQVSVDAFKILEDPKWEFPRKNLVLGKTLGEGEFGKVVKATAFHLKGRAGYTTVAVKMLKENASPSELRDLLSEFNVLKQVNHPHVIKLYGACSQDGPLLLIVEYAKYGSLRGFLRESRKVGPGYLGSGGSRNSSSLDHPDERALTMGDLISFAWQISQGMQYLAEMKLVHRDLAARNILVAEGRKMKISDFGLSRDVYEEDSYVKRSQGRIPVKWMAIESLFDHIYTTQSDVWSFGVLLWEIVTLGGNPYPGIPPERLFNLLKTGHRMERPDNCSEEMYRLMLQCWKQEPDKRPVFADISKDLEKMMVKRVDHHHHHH

[8] = target: T8, Kit (Homo sapiens, UniProt P10721); test: AlphaScreen kinase assay, Kit; conditions: read-out: IC50, activity toward kinase Kit
T8 construct: P1332.N6 BI PTP KIT M552-K948-X COD; His6 (N); made in house; host or cells: E. coli (PTP1B co-expressed)

[9] = target: T9, Jnk1 (Homo sapiens, UniProt P45983); test: AlphaScreen kinase assay, Jnk1; conditions: read-out: IC50, activity toward kinase Jnk1
T9 construct: purchased Upstate Biotechnology

[10] = target: T10, Jnk2 (Homo sapiens, UniProt P45984); test: AlphaScreen kinase assay, Jnk2; conditions: read-out: IC50, activity toward kinase Jnk2
T10 construct: purchased Roche Protein Expression Group (Indianapolis, IN)
Summary of the method: (§1)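 Biotinylated peptide substrate phosphorylation detected by AlphaScreen with phospho-specific antibody acceptor beads and streptavidin donor beads. Compounds tested as 8-point 1:3 serial dilutions from 20 mM DMSO stocks.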

[11] = target: T11, Jnk3 (Homo sapiens, UniProt P53779); test: AlphaScreen kinase assay, Jnk3; conditions: read-out: IC50, activity toward kinase Jnk3
T11 construct: purchased Upstate Biotechnology

[12] = target: T12, Zap70 (Homo sapiens, UniProt P43403); test: AlphaScreen kinase assay, Zap70; conditions: read-out: IC50, activity toward kinase Zap70
T12 construct: P1868.pFastBac1 ZAP70 D327-G606 HIS, WT; His7 (HHHHHHH) (C); made in house
T12 sequence (P43403 with tags, fused parts or gaps): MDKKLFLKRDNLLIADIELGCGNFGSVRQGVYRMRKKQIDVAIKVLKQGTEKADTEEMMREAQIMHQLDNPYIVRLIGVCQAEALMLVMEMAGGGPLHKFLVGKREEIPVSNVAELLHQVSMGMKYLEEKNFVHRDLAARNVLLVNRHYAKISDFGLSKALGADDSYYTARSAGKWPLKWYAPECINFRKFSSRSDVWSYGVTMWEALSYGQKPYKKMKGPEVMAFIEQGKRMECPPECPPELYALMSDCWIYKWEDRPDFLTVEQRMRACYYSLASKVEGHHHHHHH
Summary of the method: as §1

[13] = target: T13, Src (Homo sapiens, UniProt P12931); test: AlphaScreen kinase assay, Src; conditions: read-out: IC50, activity toward kinase Src
T13 construct: P1144. pET-N6 BI-PTP SRC V86-L536-X; made in house

[14] = target: T14, Abl (Homo sapiens, UniProt P00519); test: AlphaScreen kinase assay, Abl; conditions: read-out: activity toward kinase Abl, IC50
T14 construct: P1121. pET-SPEC BI-PTP Abl G227-V515-X; His6 (N); made in house; host or cells: E. coli (PTP1B co-expressed)
T14 sequence (P00519 with tags, fused parts or gaps): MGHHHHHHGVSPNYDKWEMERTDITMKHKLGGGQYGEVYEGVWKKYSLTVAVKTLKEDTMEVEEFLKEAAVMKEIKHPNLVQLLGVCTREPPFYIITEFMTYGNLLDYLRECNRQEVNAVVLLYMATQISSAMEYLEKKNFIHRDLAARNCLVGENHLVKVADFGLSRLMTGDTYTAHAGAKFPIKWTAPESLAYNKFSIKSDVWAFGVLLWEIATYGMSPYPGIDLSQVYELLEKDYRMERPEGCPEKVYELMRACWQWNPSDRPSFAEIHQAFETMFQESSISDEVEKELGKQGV
Summary of the method: as §1

[15] = target: MAP4K4 (Homo sapiens, UniProt O95819); test: AlphaScreen kinase assay, MAP4K4; conditions: read-out: IC50, activity toward kinase MAP4K4
[16] = target: T15, Flt1 (Homo sapiens, UniProt P17948); test: AlphaScreen kinase assay, Flt1; conditions: read-out: IC50, activity toward kinase Flt1
T15 construct: P1826.pETN6 BI-PTP FLT1 M799-D1165-X WT; His6 (N); made in house; host or cells: E. coli (PTP1B co-expressed)
T15 sequence (P17948 with tags, fused parts or gaps): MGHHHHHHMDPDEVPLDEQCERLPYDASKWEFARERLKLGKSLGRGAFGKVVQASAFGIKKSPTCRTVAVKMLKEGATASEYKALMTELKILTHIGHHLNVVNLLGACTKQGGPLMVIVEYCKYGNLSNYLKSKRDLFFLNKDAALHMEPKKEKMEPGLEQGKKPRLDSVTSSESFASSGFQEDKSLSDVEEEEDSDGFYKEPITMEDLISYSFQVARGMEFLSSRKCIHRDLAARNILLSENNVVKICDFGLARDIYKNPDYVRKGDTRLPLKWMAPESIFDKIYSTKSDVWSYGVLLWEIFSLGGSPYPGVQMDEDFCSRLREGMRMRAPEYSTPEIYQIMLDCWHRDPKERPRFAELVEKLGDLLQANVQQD

[17] = target: T16, c-Raf-1 (Homo sapiens, UniProt P04049); test: AlphaScreen kinase assay, c-Raf-1; conditions: read-out: IC50, activity toward kinase c-Raf-1
T16 construct: purchased Upstate Biotechnology

[18] = target: T17, Fms (Homo sapiens, UniProt P07333); test: AlphaScreen kinase assay, Fms; conditions: read-out: IC50, activity toward kinase Fms
T17 construct: purchased Upstate Biotechnology

Measured: IC50

T1 sequence (P15056 with tags, fused parts or gaps V600E): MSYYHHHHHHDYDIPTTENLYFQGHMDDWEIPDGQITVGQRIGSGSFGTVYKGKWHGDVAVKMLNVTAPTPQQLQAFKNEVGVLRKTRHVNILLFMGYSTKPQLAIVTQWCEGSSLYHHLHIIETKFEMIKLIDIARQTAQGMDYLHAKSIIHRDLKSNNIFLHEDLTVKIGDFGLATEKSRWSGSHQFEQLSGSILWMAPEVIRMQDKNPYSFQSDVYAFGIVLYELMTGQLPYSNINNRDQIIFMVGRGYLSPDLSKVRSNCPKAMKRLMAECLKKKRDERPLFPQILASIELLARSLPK
T8 sequence (P10721 with tags, fused parts or gaps): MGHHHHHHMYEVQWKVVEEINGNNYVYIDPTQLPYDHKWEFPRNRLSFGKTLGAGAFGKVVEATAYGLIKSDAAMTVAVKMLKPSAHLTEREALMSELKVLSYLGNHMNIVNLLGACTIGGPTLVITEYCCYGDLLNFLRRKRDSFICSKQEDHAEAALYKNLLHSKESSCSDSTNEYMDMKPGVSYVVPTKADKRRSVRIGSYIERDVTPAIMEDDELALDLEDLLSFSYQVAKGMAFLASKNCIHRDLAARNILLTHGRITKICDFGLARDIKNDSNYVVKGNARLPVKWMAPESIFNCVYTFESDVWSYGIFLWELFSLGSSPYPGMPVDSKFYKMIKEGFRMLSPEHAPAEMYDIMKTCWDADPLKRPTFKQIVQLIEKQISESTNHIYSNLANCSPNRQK
T3 sequence (P35968 20-1356): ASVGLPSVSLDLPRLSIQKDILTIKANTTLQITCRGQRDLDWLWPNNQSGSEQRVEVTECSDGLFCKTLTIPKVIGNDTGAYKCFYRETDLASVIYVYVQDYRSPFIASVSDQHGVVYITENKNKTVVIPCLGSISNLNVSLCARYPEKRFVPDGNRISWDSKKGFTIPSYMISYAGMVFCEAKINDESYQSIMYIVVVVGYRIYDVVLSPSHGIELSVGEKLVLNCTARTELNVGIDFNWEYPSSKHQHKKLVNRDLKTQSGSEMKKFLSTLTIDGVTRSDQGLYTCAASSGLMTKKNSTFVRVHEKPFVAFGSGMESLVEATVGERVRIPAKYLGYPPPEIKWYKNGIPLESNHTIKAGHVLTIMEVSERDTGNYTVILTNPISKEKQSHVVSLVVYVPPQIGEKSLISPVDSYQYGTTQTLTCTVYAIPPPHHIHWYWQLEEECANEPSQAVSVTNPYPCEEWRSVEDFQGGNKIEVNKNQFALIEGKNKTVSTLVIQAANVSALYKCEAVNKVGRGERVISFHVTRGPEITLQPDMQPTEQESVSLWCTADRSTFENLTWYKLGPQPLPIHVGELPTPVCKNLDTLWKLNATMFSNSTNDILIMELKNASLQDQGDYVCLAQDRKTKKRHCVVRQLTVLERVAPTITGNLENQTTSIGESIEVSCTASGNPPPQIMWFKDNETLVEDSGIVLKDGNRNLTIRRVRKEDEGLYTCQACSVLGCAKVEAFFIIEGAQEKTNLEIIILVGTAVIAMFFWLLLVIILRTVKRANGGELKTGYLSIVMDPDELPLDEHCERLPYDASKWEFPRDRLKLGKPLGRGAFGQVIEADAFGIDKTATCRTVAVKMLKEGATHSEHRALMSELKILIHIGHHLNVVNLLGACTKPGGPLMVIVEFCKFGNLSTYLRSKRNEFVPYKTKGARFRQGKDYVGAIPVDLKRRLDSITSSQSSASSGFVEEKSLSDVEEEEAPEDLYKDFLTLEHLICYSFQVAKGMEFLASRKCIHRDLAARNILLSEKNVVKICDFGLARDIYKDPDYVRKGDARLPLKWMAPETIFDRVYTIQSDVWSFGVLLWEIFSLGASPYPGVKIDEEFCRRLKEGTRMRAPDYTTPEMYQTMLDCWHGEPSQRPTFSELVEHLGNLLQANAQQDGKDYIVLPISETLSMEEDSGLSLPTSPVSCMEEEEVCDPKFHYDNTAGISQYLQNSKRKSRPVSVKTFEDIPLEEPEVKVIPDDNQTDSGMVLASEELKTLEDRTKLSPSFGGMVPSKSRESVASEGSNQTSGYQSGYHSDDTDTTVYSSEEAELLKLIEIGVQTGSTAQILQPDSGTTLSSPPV
T4 sequence (P11362 458-765 C488A/C584S): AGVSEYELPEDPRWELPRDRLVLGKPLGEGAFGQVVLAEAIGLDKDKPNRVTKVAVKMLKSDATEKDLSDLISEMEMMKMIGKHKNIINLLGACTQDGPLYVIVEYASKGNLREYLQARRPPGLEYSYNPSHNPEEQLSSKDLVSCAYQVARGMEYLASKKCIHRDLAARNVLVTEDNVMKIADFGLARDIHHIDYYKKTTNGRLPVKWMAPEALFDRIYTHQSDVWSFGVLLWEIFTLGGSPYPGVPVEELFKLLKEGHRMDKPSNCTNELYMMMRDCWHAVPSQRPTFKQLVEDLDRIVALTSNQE
T11 sequence (P53779 whole entry): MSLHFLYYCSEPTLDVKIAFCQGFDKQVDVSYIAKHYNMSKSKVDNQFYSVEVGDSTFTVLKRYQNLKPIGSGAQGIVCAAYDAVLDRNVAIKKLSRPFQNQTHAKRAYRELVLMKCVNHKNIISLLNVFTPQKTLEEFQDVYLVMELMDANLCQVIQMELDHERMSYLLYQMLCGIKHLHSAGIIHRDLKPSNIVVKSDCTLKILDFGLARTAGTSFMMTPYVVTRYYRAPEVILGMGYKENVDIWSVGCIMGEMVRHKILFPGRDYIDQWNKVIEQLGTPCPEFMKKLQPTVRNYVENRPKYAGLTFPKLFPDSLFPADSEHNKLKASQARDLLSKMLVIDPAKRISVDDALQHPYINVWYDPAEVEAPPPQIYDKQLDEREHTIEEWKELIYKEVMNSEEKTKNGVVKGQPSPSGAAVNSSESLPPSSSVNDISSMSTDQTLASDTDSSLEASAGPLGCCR
T6 sequence (P35916 25-1363): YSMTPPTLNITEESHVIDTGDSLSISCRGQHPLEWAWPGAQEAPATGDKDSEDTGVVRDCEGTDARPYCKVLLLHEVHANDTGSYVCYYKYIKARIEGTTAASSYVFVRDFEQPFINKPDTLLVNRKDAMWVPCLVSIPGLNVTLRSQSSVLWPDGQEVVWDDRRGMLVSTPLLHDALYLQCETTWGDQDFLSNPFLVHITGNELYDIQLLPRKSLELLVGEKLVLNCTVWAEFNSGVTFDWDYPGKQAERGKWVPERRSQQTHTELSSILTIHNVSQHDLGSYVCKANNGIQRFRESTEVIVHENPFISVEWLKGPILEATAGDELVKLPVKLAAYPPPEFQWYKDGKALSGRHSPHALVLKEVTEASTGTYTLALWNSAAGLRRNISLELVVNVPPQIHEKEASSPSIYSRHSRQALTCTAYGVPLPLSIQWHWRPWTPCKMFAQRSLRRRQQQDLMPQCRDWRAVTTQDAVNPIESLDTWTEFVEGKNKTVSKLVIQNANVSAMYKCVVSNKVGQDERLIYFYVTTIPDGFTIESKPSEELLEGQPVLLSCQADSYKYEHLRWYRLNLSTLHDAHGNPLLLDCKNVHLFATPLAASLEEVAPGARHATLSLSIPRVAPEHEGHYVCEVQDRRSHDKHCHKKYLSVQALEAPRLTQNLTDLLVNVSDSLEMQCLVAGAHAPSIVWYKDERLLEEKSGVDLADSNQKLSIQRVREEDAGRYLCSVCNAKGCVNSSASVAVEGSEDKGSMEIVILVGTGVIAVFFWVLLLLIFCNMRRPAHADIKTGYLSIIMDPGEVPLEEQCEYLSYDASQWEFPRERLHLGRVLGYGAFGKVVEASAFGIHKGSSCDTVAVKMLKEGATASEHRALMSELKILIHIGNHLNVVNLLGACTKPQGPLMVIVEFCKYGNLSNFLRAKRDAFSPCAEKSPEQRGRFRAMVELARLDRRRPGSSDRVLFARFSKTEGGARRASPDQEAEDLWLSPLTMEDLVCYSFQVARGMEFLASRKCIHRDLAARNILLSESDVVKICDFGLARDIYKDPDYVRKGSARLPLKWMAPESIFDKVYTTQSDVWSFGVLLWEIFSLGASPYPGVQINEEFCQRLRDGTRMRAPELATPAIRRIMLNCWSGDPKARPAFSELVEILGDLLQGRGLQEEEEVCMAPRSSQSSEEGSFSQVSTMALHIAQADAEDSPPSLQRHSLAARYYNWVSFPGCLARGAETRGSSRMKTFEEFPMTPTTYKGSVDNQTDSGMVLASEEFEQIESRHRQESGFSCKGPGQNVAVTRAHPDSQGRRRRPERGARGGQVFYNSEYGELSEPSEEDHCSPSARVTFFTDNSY
T13 sequence (P12931 with tags, fused parts or gaps): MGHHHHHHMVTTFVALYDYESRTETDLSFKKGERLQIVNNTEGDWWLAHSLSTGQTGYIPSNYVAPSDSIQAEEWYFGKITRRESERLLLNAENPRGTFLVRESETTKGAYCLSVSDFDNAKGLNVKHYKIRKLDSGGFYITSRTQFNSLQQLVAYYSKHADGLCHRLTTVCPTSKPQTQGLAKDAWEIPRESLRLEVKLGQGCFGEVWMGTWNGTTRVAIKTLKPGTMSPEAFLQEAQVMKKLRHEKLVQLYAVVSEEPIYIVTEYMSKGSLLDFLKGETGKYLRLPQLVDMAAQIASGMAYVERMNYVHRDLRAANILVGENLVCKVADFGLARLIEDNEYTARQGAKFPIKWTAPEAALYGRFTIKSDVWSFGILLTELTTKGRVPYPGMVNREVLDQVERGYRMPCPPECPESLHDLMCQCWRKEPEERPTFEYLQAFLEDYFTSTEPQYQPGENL
T10 sequence (P45984 whole entry): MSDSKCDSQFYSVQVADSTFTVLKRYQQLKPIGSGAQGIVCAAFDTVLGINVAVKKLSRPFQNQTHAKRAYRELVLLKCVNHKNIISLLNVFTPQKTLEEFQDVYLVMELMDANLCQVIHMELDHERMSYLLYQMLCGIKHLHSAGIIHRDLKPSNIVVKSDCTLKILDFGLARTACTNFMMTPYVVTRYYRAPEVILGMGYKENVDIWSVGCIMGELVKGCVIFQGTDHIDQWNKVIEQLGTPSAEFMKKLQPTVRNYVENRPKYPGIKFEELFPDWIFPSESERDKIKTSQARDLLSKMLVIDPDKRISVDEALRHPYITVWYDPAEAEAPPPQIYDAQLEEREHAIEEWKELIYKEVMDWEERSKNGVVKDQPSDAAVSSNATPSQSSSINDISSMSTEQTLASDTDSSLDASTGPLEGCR

O=C(c1ccccc1F)c1c[nH]c2nccc(-c3cc(F)cc(F)c3)c12 [Compound P-0097]
≤ 10 µM: [1] | [2] | [3] | [4] | [5] | [6] | [7] | [8]

COc1cccc(C(=O)c2c[nH]c3ncc(-c4cccs4)cc23)c1 [Compound P-0204]
≤ 10 µM: [9] | [10] | [3] | [11] | [4] | [6] | [7] | [8]

O=C(c1cccc(F)c1F)c1c[nH]c2nccc(-c3cc(F)cc(F)c3)c12 [Compound P-0205]
≤ 10 µM: [1] | [12] | [4] | [6] | [7] | [8]

O=C(c1cccc(F)c1)c1c[nH]c2nccc(-c3cc(F)cc(F)c3)c12 [Compound P-0316]
≤ 10 µM: [13] | [3] | [4] | [6] | [7] | [14] | [8]

COc1cccc(C(=O)C2C=Nc3nccc(-c4cc(F)cc(F)c4)c32)c1 (stereo not shown) [Compound P-0453]
≤ 10 µM: [13] | [1] | [4] | [6] | [7] | [14] | [8]

O=C(c1ccc2ccccc2c1)c1c[nH]c2ncccc12 [Compound P-0495]
≤ 10 µM: [12] | [15] | [3] | [4] | [6] | [7] | [8]

COc1ccc(F)c(C(=O)c2c[nH]c3ncc(-c4cccs4)cc23)c1 [Compound P-0656]
≤ 10 µM: [16] | [17] | [1] | [11] | [4] | [6] | [7] | [18] | [14] | [8]

Nc1cccc(-c2cnc3[nH]cc(C(=O)c4ccc5nsnc5c4)c3c2)c1 [Compound P-0703]
≤ 10 µM: [12] | [3] | [11] | [6] | [7] | [8]

Nc1cccc(-c2cnc3[nH]cc(C(=O)c4ccc(Cl)cc4)c3c2)c1 [Compound P-0738]
≤ 10 µM: [3] | [11] | [6] | [7] | [14] | [8]

O=C(c1cccc(Cl)c1Cl)c1c[nH]c2ncc(-c3cccnc3)cc12 [Compound P-0751]
≤ 10 µM: [16] | [1] | [3] | [4] | [6] | [7] | [14] | [8]

Cc1cc(C(=O)c2c[nH]c3ncc(-c4ccc(C(N)=O)cc4)cc23)n(C)n1 [Compound P-0762]
≤ 10 µM: [1] | [3] | [6] | [7] | [14] | [8]

Reference: patent publication US8415469B2, “Compounds and methods for kinase modulation, and indications therefor” (Plexxikon Inc., priority 2005, dated 2013)
